Source: ChEMBL document CHEMBL4152237, “Identification of novel β-lactams and pyrrolidinone derivatives as selective Histamine-3 receptor (H3R) modulators as possible anti-obesity agents” (Eur J Med Chem, 2018)
Calls of active or inactive are those of the source. Unless noted, the rule behind the calls is not given here.

How the values were obtained:
[1] = target: Luciferin 4-monooxygenase (Photinus pyralis) (UniProt P08659); test: Inhibition of firefly luciferase activity expressed in HEK293 cells assessed as reduction in forskolin-stimulated cAMP accumulation up to 10 uM preincubated with cells followed by forskolin addition measured after 10 mins by luminescence assay; format: cell-based
[2] = target: T1, 5-hydroxytryptamine receptor 2C (Homo sapiens) (UniProt P28335); test: Antagonist activity at human 5-HT2C expressed in HEK293 cells harboring luc2P/NFAT-RE plasmid at 10 uM after 6 to 8 hrs by luciferase reporter gene assay; format: functional, cell-based
T1 sequence (whole entry): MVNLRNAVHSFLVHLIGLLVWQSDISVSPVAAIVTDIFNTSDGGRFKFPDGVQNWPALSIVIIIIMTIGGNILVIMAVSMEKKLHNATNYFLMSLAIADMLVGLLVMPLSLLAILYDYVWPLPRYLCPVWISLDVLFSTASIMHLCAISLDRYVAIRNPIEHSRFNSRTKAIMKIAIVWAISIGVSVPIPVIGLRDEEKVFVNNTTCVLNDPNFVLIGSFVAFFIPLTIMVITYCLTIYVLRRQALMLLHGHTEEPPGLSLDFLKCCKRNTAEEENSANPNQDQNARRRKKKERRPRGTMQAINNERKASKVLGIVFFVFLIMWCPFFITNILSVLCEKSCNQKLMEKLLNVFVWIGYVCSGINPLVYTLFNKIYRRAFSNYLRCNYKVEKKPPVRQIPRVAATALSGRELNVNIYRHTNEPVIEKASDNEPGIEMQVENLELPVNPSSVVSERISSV

[3] = test system: HEK-293T; test: Cytotoxicity against HEK293T cells assessed as reduction in cell viability at 1 to 10 uM after 24 hrs by XTT assay; format: cell-based; conditions: human
[4] = target: T2, Histamine H3 receptor (Homo sapiens, UniProt Q9Y5N1); test: (§1) Agonist activity at human H3R expressed in HEK293 cells harboring glosensor-22F cAMP plasmid DNA assessed as inhibition of forskolin-stimulated cAMP accumulation preincubated with cells followed by forskolin addition measured after 10 mins by luminescence assay; format: functional, cell-based
[5] = Octanol/water partition co-efficient, log P of the compound after 24 hrs by HPLC based shake-flask method; format: physicochemical
[6] = target: Histamine H1 receptor (Homo sapiens) (UniProt P35367); test: Antagonist activity at H1R (unknown origin) expressed in HEK293 cells harboring luc2P/NFAT-RE plasmid at 10 uM after 6 to 8 hrs by luciferase reporter gene assay; format: functional, cell-based
[7] = target: T2, Histamine H3 receptor; test: as §1, with “accumulation at 1 uM” for “accumulation”, “mins in presence of H3R antagonist GSK334429” for “mins”; format: functional, cell-based
[8] = target: Histamine H4 receptor (Homo sapiens) (UniProt Q9H3N8); test: Agonist activity at H4R (unknown origin) expressed in HEK293 cells harboring glosensor-22F cAMP plasmid DNA assessed as inhibition of forskolin-stimulated cAMP accumulation at 10 uM preincubated with cells followed by forskolin addition measured after 10 mins by luminescence assay; format: functional, cell-based
[9] = target: T1, 5-hydroxytryptamine receptor 2C (Homo sapiens); test: Agonist activity at human 5-HT2C expressed in HEK293 cells harboring luc2P/NFAT-RE plasmid at 10 uM after 6 to 8 hrs by luciferase reporter gene assay; format: functional, cell-based
[10] = target: Histamine H2 receptor (Homo sapiens) (UniProt P25021); test: Agonist activity at H2R (unknown origin) expressed in HEK293 cells harboring glosensor-22F cAMP plasmid DNA assessed as inhibition of forskolin-stimulated cAMP accumulation at 10 uM preincubated with cells followed by forskolin addition measured after 10 mins by luminescence assay; format: functional, cell-based
[11] = target: Histamine H1 receptor (Homo sapiens) (UniProt P35367); test: Agonist activity at H1R (unknown origin) expressed in HEK293 cells harboring luc2P/NFAT-RE plasmid at 10 uM after 6 to 8 hrs by luciferase reporter gene assay; format: functional, cell-based
[12] = target: Histamine H4 receptor (Homo sapiens) (UniProt Q9H3N8); test: Antagonist activity at H4R (unknown origin) expressed in HEK293 cells harboring glosensor-22F cAMP plasmid DNA assessed as effect on forskolin-stimulated cAMP accumulation at 10 uM preincubated with cells followed by forskolin addition measured after 10 mins by luminescence assay; format: functional, cell-based
[13] = target: Histamine H2 receptor (Homo sapiens) (UniProt P25021); test: Antagonist activity at H2R (unknown origin) expressed in HEK293 cells harboring glosensor-22F cAMP plasmid DNA assessed as effect on forskolin-stimulated cAMP accumulation at 10 uM preincubated with cells followed by forskolin addition measured after 10 mins by luminescence assay; format: functional, cell-based
[14] = test system: Mus musculus; test: Anorexic effect in diet-induced obese C57BL/6J mouse assessed as reduction in cumulative food intake at 10 mg/kg, po pretreated for 30 mins followed by food addition measured after 4 hrs; format: functional, organism-based
[15] = test system: Mus musculus; test: Anorexic effect in diet-induced obese C57BL/6J mouse assessed as reduction in cumulative food intake at 20 mg/kg, po pretreated for 30 mins followed by food addition measured after 4 hrs; format: functional, organism-based

Chain of Histamine H1 receptor (Homo sapiens) (P35367 whole entry): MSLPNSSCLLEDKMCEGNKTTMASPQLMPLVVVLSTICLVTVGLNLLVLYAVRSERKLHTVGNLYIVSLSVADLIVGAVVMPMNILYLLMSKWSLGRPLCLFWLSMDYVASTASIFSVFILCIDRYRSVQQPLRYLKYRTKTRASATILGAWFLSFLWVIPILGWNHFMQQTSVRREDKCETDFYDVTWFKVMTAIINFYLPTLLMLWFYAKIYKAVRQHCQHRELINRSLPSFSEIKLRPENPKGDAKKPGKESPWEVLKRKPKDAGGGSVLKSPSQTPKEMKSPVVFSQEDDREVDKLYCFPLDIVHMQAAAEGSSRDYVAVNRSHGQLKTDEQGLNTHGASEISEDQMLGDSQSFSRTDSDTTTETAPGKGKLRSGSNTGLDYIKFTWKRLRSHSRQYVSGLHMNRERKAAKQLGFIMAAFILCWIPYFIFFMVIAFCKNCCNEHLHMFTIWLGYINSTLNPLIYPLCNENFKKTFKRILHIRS
Chain of Luciferin 4-monooxygenase (Photinus pyralis) (P08659 whole entry): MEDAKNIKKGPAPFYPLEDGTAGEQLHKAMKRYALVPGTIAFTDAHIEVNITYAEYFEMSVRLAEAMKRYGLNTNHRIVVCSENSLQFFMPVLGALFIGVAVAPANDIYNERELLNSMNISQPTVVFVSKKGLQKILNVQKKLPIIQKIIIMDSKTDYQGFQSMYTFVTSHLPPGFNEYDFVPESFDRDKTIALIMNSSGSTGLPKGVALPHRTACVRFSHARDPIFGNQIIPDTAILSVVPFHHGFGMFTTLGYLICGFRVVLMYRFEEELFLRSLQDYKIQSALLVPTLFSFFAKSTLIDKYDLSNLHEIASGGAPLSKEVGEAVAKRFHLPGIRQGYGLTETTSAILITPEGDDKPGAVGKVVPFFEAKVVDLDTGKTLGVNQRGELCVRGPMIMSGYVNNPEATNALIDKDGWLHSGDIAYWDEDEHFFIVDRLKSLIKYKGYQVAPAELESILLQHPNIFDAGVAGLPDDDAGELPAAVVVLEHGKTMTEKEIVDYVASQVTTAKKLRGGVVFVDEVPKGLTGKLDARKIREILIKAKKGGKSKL
T2 sequence (Q9Y5N1 whole entry): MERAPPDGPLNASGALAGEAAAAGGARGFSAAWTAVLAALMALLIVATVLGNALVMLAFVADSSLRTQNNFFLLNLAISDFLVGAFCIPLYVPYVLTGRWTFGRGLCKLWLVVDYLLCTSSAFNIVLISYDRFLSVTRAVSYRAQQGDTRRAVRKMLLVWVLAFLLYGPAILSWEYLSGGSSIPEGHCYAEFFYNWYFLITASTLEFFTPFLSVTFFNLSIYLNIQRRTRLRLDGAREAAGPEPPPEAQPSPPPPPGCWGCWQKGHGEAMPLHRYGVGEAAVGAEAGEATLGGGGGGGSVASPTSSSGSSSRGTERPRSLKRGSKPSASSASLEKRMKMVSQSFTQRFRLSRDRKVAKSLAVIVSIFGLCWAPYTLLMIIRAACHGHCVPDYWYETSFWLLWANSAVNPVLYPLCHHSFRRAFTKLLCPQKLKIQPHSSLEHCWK
Chain of Histamine H4 receptor (Homo sapiens) (Q9H3N8 whole entry): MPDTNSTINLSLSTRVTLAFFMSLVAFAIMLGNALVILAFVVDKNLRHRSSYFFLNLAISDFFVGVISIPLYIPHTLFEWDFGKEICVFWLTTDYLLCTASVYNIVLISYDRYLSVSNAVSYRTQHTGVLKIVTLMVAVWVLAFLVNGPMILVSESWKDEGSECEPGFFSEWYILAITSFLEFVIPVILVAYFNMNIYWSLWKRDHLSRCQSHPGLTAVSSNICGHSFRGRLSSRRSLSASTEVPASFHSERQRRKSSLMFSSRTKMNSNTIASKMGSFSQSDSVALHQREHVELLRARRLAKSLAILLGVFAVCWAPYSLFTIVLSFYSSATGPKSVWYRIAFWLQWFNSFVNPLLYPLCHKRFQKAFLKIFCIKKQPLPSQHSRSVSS
Chain of Histamine H2 receptor (Homo sapiens) (P25021 whole entry): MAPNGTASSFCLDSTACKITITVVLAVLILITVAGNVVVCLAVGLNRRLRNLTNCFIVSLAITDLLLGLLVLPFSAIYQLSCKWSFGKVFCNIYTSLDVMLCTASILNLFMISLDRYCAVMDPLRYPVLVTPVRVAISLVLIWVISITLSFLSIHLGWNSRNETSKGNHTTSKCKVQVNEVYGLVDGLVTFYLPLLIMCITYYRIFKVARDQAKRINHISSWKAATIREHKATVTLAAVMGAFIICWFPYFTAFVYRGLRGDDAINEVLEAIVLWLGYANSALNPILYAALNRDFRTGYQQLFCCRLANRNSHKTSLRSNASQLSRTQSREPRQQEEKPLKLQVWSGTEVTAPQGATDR

Structure (SMILES)	inhibition [1]	inhibition [2]	Activity [3]	EC50 ([4]; read-out: EC50) [nM]	logP at 24 h [5]	inhibition [6]	inhibition [7]	inhibition [8]	Activity [9]	inhibition [10]	Activity [11]	inhibition [12]	inhibition [13]	Activity [14]	Activity [15]	EC50 ([4]; read-out: pEC50 (converted)) [nM]
O=C1C=C[C@]23C(c4ccccc4)=CC(=O)N2[C@H](c2ccc(C(F)(F)F)cc2)C(=O)N[C@@H]3C1	inactive	inactive	Non-Toxic	94	2.1	inactive	inactive	inactive	inactive	inactive	inactive	inactive	inactive	–	–	–
C[C@H]1CNCCc2ccc(Cl)cc21	–	–	–	–	–	–	–	–	–	–	–	–	–	Active	–	–
COc1ccc(NC2(c3cccc(Cl)c3)C(=O)N(C3CCCCC3)C(=O)/C2=C/c2ccccc2)cc1OC (stereo not drawn)	inactive	inactive	Non-Toxic	2.7	2.45	inactive	inactive	inactive	inactive	inactive	inactive	inactive	inactive	–	–	–
COc1ccc(C(C(=O)NC2CCCCC2)N2C(=O)C(c3ccc(C(F)(F)F)cc3)=C(c3ccccc3)C23C=CC(=O)C=C3)c(OC)c1OC (stereo not drawn)	inactive	inactive	Non-Toxic	13	2.74	inactive	inactive	inactive	inactive	inactive	inactive	inactive	inactive	–	–	–
COc1cc(N2C(=O)C(=Cc3ccccc3)C2(C(=O)NC(C)(C)C)c2cc(F)cc(F)c2)cc(OC)c1OC (stereo not drawn)	inactive	inactive	Non-Toxic	0.3	2.34	inactive	inactive	inactive	inactive	inactive	inactive	inactive	inactive	–	–	–
O=C1C=C[C@]23C(c4ccccc4)=CC(=O)N2[C@H](c2ccc([N+](=O)[O-])cc2)C(=O)N[C@@H]3C1	inactive	inactive	Non-Toxic	0.3	1.78	inactive	inactive	inactive	inactive	inactive	inactive	inactive	inactive	–	–	–
COc1cc(NC2(c3cccc(Cl)c3)C(=O)N(C(C)(C)C)C(=O)/C2=C/c2ccccc2)cc(OC)c1OC (stereo not drawn)	inactive	inactive	Non-Toxic	2.7	2.96	inactive	inactive	inactive	inactive	inactive	inactive	inactive	inactive	inactive	Active	–
COc1ccc(NC2(c3ccc(Br)cc3)C(=O)N(C(C)(C)C)C(=O)/C2=C/c2ccccc2)cc1OC (stereo not drawn)	inactive	inactive	Non-Toxic	1.3	–	inactive	inactive	inactive	inactive	inactive	inactive	inactive	inactive	–	–	–
COc1cc(N2C(=O)C(=Cc3ccccc3)C2(C(=O)NC2CCCCC2)c2ccc(F)cc2)cc(OC)c1OC (stereo not drawn)	inactive	inactive	Non-Toxic	104	1.85	inactive	inactive	inactive	inactive	inactive	inactive	inactive	inactive	–	–	–
COc1cc(N2C(=O)C(=Cc3ccccc3)C2(C(=O)NC(C)(C)C)c2ccccc2)cc(OC)c1OC (stereo not drawn)	inactive	inactive	Non-Toxic	0.1	–	inactive	inactive	inactive	inactive	inactive	inactive	inactive	inactive	–	–	–
COc1cc(NC2(c3ccc(Br)cc3)C(=O)N(C(C)(C)C)C(=O)/C2=C/c2ccccc2)cc(OC)c1OC (stereo not drawn)	inactive	inactive	Non-Toxic	5.7	–	inactive	inactive	inactive	inactive	inactive	inactive	inactive	inactive	–	–	–
COc1ccc(NC2(c3cc(F)cc(F)c3)C(=O)N(C3CCCCC3)C(=O)/C2=C/c2ccccc2)cc1 (stereo not drawn)	inactive	inactive	Non-Toxic	3.8	–	inactive	inactive	inactive	inactive	inactive	inactive	inactive	inactive	–	–	–
O=C1C=CC2(C=C1)C(c1ccccc1)=CC(=O)N2C(C(=O)NC1CCCCC1)c1ccc(Cl)cc1 (stereo not drawn)	inactive	inactive	Non-Toxic	104	3.8	inactive	inactive	inactive	inactive	inactive	inactive	inactive	inactive	–	–	–
COc1ccc(N2C(=O)/C(=C\c3ccccc3)C2(C(=O)NC(C)(C)C)c2ccc(Br)cc2)cc1OC (stereo not drawn)	inactive	inactive	Non-Toxic	24	–	inactive	inactive	inactive	inactive	inactive	inactive	inactive	inactive	–	–	25.7
